Source: patent publication US11207277B2, “Methods of treating diseases associated with high-fat diet and vitamin a deficiency using retinoic acid receptor agonists” (Cornell University, priority 2013, dated 2021)
“Also recorded” adds a separate entry of the source.

Columns and labels:
RARβ2 [1] = assay: Semi-quantitative PCR of pancreatic tissue, HF-fed mice; assay type: in vivo; settings: HF diet mice + AC261066 vs HF-vehicle
Text: (§1) WT male C57/BL6 male mice were maintained on either a standard laboratory chow-fed diet (CFD) with 13% kcal fat, (diet #5053, Lab Diet, Inc, St. Louis, Mo.) or a high fat, western style diet (HFD) with 60% kcals from fat, (diet #58126, Lab Diet, Inc., St. Louis, Mo.) for 4 months. One month after the start of the high fat diet treatment, the high fat diet group was further split into 2 groups for 3 months: i) high fat diet and the drinking water containing 1% DMSO; ii) high fat diet and the drinking water containing 1.5 mg/100 ml AC261066, a specific RARβ agonist. Then mice were sacrificed by cervical dislocation. Blood and various tissue samples were harvested.
(§2) Total RNA was extracted from mouse tissues using TRIzol reagent (Life technologies) and (1 μg) was used to synthesize cDNA. cDNA synthesis was performed at 42° C. for 1 h in a final volume of 20 μl using qScript (Quanta, MD). Semi-quantitative PCR were performed Taq DNA polymerase (Invitrogen, CA). Three step PCR was run as follows: 94° C. for 30 s, 58-64° C. for 45 s for primer annealing and 72° C. for 1 min for primer extension. The number of cycles for each primer pair for amplification in the linear range was determined experimentally. PCR products were resolved on 2% agarose gels and visualized by staining with ehtidium bromide. Primers for gene expression used were as follows: […]

RARβ2 [2] = assay: Semi-quantitative PCR of pancreatic tissue, LRAT -/- vitamin A deficient mice; assay type: in vivo; settings: AC261066 for 8 weeks
Procedure: FIG. 10. Gene expression of RARβ2 in pancreatic tissue from LRAT −/− vitamin A sufficient mice (VAS, normal control diet), LRAT −/− vitamin A deficient (VAD) mice, and LRAT −/− vitamin A deficient (VAD) mice treated with AC261066 for 8 weeks.
as §2

hepatic lipids = assay: Oil red O staining of liver sections; assay type: in vivo; settings: HF diet mice + AC261066 or CD1530; vs HF-vehicle
Text: as §1
Staining. Fresh mouse liver samples were embedded in optimal cutting temperature (OCT) medium and immediately frozen to −70 centigrade. Cryosections were then fixed in 4% formaldehyde for 1 hr at room temp. Slides were then rinsed three times in deionized water (dH2O) for 30 s, followed by treatment with 0.5% Triton X-100 in PBS for 5 min. Sections were then washed three times with PBS for 5 min. Samples were with incubated 2% bovine serum albumin (BSA) for 30 min at room temperature to block for unspecific antibody binding. Following blocking, sections were washed three times in PBS and incubated with mouse monoclonal antibody against α-SMA (1:500) (Dako, Inc) for 24 h at 4° C. […]

α-SMA = α-SMA immunofluorescence of liver sections (hepatic stellate cell activation); assay type: in vivo; settings: HF diet mice + AC261066 or CD1530, vs HF-vehicle
Text: as §1
Staining. Fresh mouse liver samples were embedded in optimal cutting temperature (OCT) medium and immediately frozen to −70 centigrade. Cryosections were then fixed in 4% formaldehyde for 1 hr at room temp. Slides were then rinsed three times in deionized water (dH2O) for 30 s, followed by treatment with 0.5% Triton X-100 in PBS for 5 min. Sections were then washed three times with PBS for 5 min. Samples were with incubated 2% bovine serum albumin (BSA) for 30 min at room temperature to block for unspecific antibody binding. Following blocking, sections were washed three times in PBS and incubated with mouse monoclonal antibody against α-SMA (1:500) (Dako, Inc) for 24 h at 4° C. After 24 h sections were washed three times in PB and incubated with Alexa-Flour-488 anti-mouse secondary anti-body (1:500) (Invitrogen, Inc) for 30 min at room temperature. Sections were then washed three times in PBS and incubated with working strength oil-red O solution for 30 minutes at room temperature. Sections were then rinsed for 30 minutes under running tap water and cover-slipped with Vectashield hard mount plus DAPI (Vector Labs, Inc).

alpha-SMA = assay: Semi-quantitative PCR liver, alpha-SMA; assay type: in vivo; settings: HF diet mice + AC261066 or CD1530; vs HF-vehicle
Text: as §1
as §2, with “resolved” for “resolved on”

MCP-1 = assay: Semi-quantitative PCR liver, MCP-1; assay type: in vivo; settings: HF diet mice + AC261066 or CD1530
Text: as §1
as §2, with “resolved” for “resolved on”

[3] = Serum triglyceride level measurement; assay type: in vivo, mice; settings: HF+AC261066 feeding vs CF controls
Text: as §1
The analysis of serum triglyceride levels was carried out using a bichromatic assay at the Laboratory of Comparative Pathology of the Memorial Sloan-Kettering Cancer Center. Chow-fed diet (CFD) n=2; high fat diet (HFD) n=3; high fat diet+AC261066 (HFDAC) n=5.

all-trans retinol = assay: HPLC analysis of serum retinol; assay type: in vivo; settings: CF, HF and HF+AC261066 fed mice
Text: as §1
The frozen liver tissue samples (˜100 mg) were homogenized in 500 μl cold phosphate-buffered saline (PBS). In addition, 100 μl serum was diluted in cold PBS to total volume of 500 μl. Retinyl acetate was added to each sample before the retinoid extraction for the calculation of extraction efficiency. The retinoids were extracted into 350 μl of organic solution (acetonitrile/butanol, 50:50, v/v) in the dark. The high performance liquid chromatography (HPLC) was performed using a Waters Millennium system (Waters). […] The amounts of retinoids were calculated from the areas under the peaks detected at the wave-length of 325 nm. […]

renal lipid accumulation = assay: Hematoxylin and eosin staining of kidney sections; assay type: in vivo; settings: HF diet mice + AC261066 or CD1530; vs HF-vehicle
Text: as §1
At sacrifice, fresh mouse liver samples were fixed in 4% formaldehyde solution for 24 hr and embedded in paraffin blocks. Kidney paraffin sections were cut 5 microns thick and mounted on glass slides and stained with hematoxylin and eosin (H and E) using standard protocols.

RARβ2 [4] = assay: Semi-quantitative PCR kidney, RARβ2; assay type: in vivo; settings: HF diet mice + AC261066
Text: as §1
as §2, with “(Invitrogen.” for “(Invitrogen,”

LRAT = assay: Semi-quantitative PCR kidney, LRAT; assay type: in vivo; settings: HF diet mice + AC261066
Text: as §1
as §2, with “(Invitrogen.” for “(Invitrogen,”

## CCCCOCCOc1nc(-c2ccc(C(=O)O)c(F)c2)sc1C [AC261066]
RARβ2 [1]
  RARβ (RARβ2) mRNA levels in pancreas: increased the RAR 32 mRNA levels; also recorded: increased compared to HF-vehicle treated mice
RARβ2 [2]
  RARβ2 mRNA levels in pancreas: increased the RARβ2 mRNA levels
Hepatic lipids
  hepatic lipid accumulation (oil red O): marked diminished hepatic lipid accumulation
α-SMA
  α-SMA positive staining in liver (HSC activation): diminished activation of hepatic stellate cells; also recorded: decreased expression of α-SMA; also recorded: decreased intensity and regions of α-SMA positive staining
α-SMA; listed as AC261011
  α-SMA positive staining in liver (HSC activation): α-SMA protein is decreased
alpha-SMA
  hepatic mRNA levels of alpha-SMA: also decreased
MCP-1
  mRNA levels of MCP-1 in liver: decreases levels of inflammatory proteins MCP-1 and TNF alpha
[3]
  serum triglyceride levels: does not increase triglyceride levels; also recorded: does not affect serum triglyceride levels
all-trans retinol
  serum levels of all-trans retinol: not different
Renal lipid accumulation
  renal lipid infiltration/accumulation (H and E): diminished renal lipid accumulation; also recorded: markedly decreased renal lipid infiltration
RARβ2 [4]
  RARβ2 mRNA levels in kidney: restores RAR beta and LRAT mRNA levels; also recorded: did not have decreased RARβ2 mRNA levels
LRAT
  LRAT mRNA levels in kidney: restores RAR beta and LRAT mRNA levels
